Data on one substance can be found in patent US8833363B2, “Ejection liquid, ejection method, method for forming liquid droplets, liquid ejection cartridge and ejection apparatus” (Canon Kabushiki Kaisha, priority 2004, dated 2014).

The subject of the assay is Wister rats. Briefly: Confirmation of pharmacological activity: blood glucose level of rats after subcutaneous injection. Format: in vivo, rat. Conditions: 1.6 U/kg, 15, 30, 60 and 120 minutes after injection. The procedure:
After anesthetic, Nembutal, was injected to Wister rats (male, 8 week-old, weight: about 250 g) fasted for one day, blood was taken from the tail vein. This is used as a base (control). […] The resultant liquid droplets were collected and subcutaneously injected into the rats in a dose of 1.6 U/kg. Blood was taken from the tail vein 15, 30, 60 and 120 minutes after the injection. The blood samples thus taken were centrifugally separated and the blood glucose levels of the obtained serums were analyzed (one group consisting of 6 rats). The same experiment was performed by using an insulin solution having no additives and not ejected in accordance with the thermal inkjet system as a Comparative Example.

Take “insulin: insulin solution having no additives and not ejected in accordance with the thermal inkjet system (Comparative Example of Example 25)”: the “effect in reducing blood glucose level” value is “swiftly decreased”.
